Measured values reported in patent US20240383831A1, “ALKOXYLATION OF CANNABIDIOL AND OTHER CANNABINOIDS” (Indorama Ventures Oxides LLC, priority 2021, published 2024).

Columns and labels:
Format in all cases: physicochemical
pH of 5 wt % in water = assay: pH of 5 wt % in water
Text: (§1) The alkoxylated product that results from the above reaction conditions can be characterized using common analytical techniques, including hydroxyl value, melting point, unreacted cannabinoid (wt %), cloud point (5 wt % in water), pH (5 wt % in water), ^1H NMR-structural analysis, and appearance. Comparisons between a cannabinoid and its alkoxylated form (such as CBD and e-CBD in EXAMPLE 1 below) are made in Table 1 exemplifying how the e-CBD having a (POE) value of 12 behaves differently as compared to its non-ethoxylated precursor. While these properties are strongly dependent on the number of moles of EO used in relation to the equivalents of CBD, in order to obtain a water soluble or dispersible product, the number of moles of EO in the e-CBD may be between about 1-100, more preferably between about 10-25.

[1] = Water solubility of e-CBD compounds, 5 wt % actives in water
Text: as §1
By varying the molar ratio of the epoxide-to-cannabinoid starter compound to produce a product having a (POE) value between 7 and 36, the hydrophilicity of the cannabinoid may be tuned (see Table 2). The water solubility of the alkoxylated-CBD compounds (Examples 1-4) was determined at room (25° C.) and physiological (37° C.) temperatures.

[2] = Cloud point, 5 wt % actives in water
Text: as §1

C=C(C)[C@@H]1CCC(C)=C[C@H]1c1c(O)cc(CCCCC)cc1O [CBD, cannabidiol]
Insoluble: pH (5 wt % in water at 25° C.) (pH of 5 wt % in water) | Water Solubility (5 wt % in water at 37° C.) ([1]; Table 1, 5 wt % in water, 37° C.) | Water Solubility (5 wt % actives in water at 25° C.) ([1]; Table 2, 5 wt % actives in water, 25° C. (room temperature)) | Water Solubility (5 wt % actives in water at 37° C.) ([1]; Table 2, 5 wt % actives in water, 37° C. (physiological temperature)) | Cloud Point (° C., 5 wt % actives in water) [2]
